Laboratory results published in patent publication US8497371B2, “Pipemidic acid derivative autotaxin inhibitors” (University of Memphis Research Foundation, priority 2009, dated 2013).
“Also recorded” adds a separate entry of the source. Where two headings read alike, the source gives them in different places.

Key:
ATX [1] = target: T1, ATX (Homo sapiens, UniProt Q13822); test: ATX inhibition assay with FS-3 substrate; assay type: biochemical; design: conditioned serum-free medium (CCM) from MDA-MB-435 cells as the source of ATX; endogenous in cells; host or cells: MDA-MB-435 cells (about 10x concentrated serum-free conditioned medium); conditions: for % Response at 10 μM (FS-3): FS-3 hydrolysis normalized to vehicle control (low = strong inhibition), mean ± S.D.; for single dose response comparison by aromatic substituent and position: Table 2, same values as % Response at 10 μM; for inhibition at 10 µM: single dose 10 μM, % inhibition, read-out: inhibition of ATX-mediated hydrolysis of FS-3
Protocol: ATX inhibition was assayed using the substrate FS-3 (Echelon Biosciences, Inc., Salt Lake City, Utah, USA). The FS-3 assay used ˜10 times concentrated conditioned serum-free medium (CCM) from MDA-MB-435 cells as the source of ATX, while CCM comprised one-third of the total volume.
All assays were performed in 96-well plates with data read at 1 minute intervals by a Synergy2 system (BioTek, Winooski, Vt.). […] Results are shown at one hour, at which point all fluorescence and absorbance changes as a function of time were linear. All readings were normalized to vehicle control after subtraction of fluorescence in the absence of CCM. Data are shown as the mean±S.D. of at least three wells. All experiments were repeated at least twice and results are shown.

ATX [2] = target: T1, ATX; test: biochemical
ATX [3] = target: T1, ATX; design: conditioned serum-free medium (CCM) from MDA-MB-435 cells as the source of ATX; endogenous in cells; host or cells: MDA-MB-435 cells (about 10x concentrated serum-free conditioned medium); conditions: 10 μM compound, 1 μM FS-3; earlier screen; cited from earlier work
A2058 cells = test: A2058 cell migration (scratch closure); assay type: cell-based; conditions: 30 μM inhibitor, 48 hours; for ATX-stimulated cell migration: ATX 100 ng/ml; for LPC+ATX-stimulated cell migration: LPC 18:1 10 μM + ATX 100 ng/ml; for LPC-stimulated cell migration: LPC 18:1 10 μM
Protocol: A2058 cells were seeded in 96-well plates at a density of 50,000 cells per well in complete growth medium (DMEM+10% FBS+penicillin/streptomycin+L-glutamine). Cells were allowed to equilibrate for 24 hours at 37° C. with 5% CO2. Cells were then serum-deprived for 24 hours in DMEM+0.1% BSA+penicillin/streptomycin+L-glutamine (serum-free medium). […] The width of the injury was measured at T0, 4 hours (data not shown), 24 hours (data not shown), and 48 hours (shown above) after injury/treatment using the 10× objective of the phase-contrast microscope and the Micron USB software package. Data represent mean percent closure±SD. n=3 for each experiment. […] However, these reductions were also not statistically significant.

ATX [4] = target: T1, ATX; conditions: for Inhibition Mechanism: FS-3 substrate
human NPP7 = target: T2, human NPP7 (Homo sapiens, UniProt Q6UWV6); test: Determination of NPP7 inhibition (pNPPC substrate); assay type: biochemical; conditions: 10 μM inhibitor
T2 construct: transfected with human NPP6ex^51 or human NPP7ex expression plasmids; made in house; host or cells: HEK293 cells, transient transfection, pcDNA3.1(+); conditioned medium concentrated about 10x (CCM)
T2 sequence (Q6UWV6 22-433 limits assumed): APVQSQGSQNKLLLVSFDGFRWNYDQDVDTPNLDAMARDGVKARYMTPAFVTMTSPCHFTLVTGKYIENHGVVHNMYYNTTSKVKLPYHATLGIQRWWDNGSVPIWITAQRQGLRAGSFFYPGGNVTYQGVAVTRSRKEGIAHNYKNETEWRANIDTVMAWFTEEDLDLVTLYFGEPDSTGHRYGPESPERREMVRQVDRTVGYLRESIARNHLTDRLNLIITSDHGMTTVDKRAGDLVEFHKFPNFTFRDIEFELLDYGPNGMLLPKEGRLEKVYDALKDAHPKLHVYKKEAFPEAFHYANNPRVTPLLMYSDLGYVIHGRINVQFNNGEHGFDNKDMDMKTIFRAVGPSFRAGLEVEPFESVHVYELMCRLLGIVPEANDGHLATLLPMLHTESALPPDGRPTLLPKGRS
Protocol: (§1) Inhibitor selectivity was assayed using p-nitrophenylphosphoryl-choline (pNPPC) (Sigma-Aldrich, St. Louis, Mo.) as substrate for NPP6 and NPP7. The final volume (60 μL) included 20 μL (CM, NPP6 or CCM, NPP7, 20 μL inhibitor (10 μM including 1% DMSO) in assay buffer, and 20 μL pNPPC (10 mM, NPP6 or 1 NPP7) in assay buffer. NPP6 assay buffer contained 500 mM NaCl, 0.05% Triton X-100, 100 mM Tris-HCl (pH 9.0), whereas NPP7 assay buffer was comprised of 50 mM Tris HCl, pH 8.5, 150 mM NaCl, and 10 mM taurocholic acid. However, unlike the published methods, EDTA was not added to the NPP7 assay buffer. All assays were performed in 96-well, half area plates (Corning Inc., Lowell, Mass.) at 37° C. with data collected at 2 minute intervals using a Synergy2 absorbance plate reader (BioTek, Winooski, Vt.). Results are shown at the one hour time point, when all absorbance changes as a function of time were linear. Readings were normalized to vehicle control after subtraction of absorbance in the absence of CM or CCM. Data are shown as the mean±S.D. of at least three wells. All experiments were repeated twice and representative results are shown.
(§2) Assays were performed with CM or CCM from HEK293 cells transiently transfected with NPP6 and 7 expression plasmids, respectively. HEK293 cells were seeded in Dulbecco's modified Eagle's medium (DMEM) containing 10% fetal bovine serum, 100 U/ml penicillin, 100 μg/ml streptomycin (Hyclone, Logan, Utah), and 2 mM L-glutamine. HEK293 cells were grown overnight at 37° C. under 5% CO2 to 80% confluence. The cells were then transfected with human NPP6ex^51 or human NPP7ex expression plasmids in the pcDNA3.1(+) mammalian vector in the presence of Polyfect Transfection Reagent (Hyclone, Logan, Utah). Six hours after transfection, the culture medium was changed to serum free DMEM containing L-glutamine and cells were incubated for 48 hours. Expressed protein was collected (NPP6 and NPP7) and concentrated ˜10×(NPP7) using 10 kDa molecular weight cutoff filters (Millipore, Beverly, Mass.) in an Amicon pressure cell (Millipore, Beverly, Mass.).

human NPP6 = target: T3, human NPP6 (Homo sapiens, UniProt Q6UWR7); test: Determination of NPP6 inhibition (pNPPC substrate); assay type: biochemical; conditions: 10 μM inhibitor
T3 construct: transfected with human NPP6ex^51 or human NPP7ex expression plasmids; made in house; host or cells: HEK293 cells, transient transfection, pcDNA3.1(+); unconcentrated conditioned medium (CM)
T3 sequence (Q6UWR7 23-419 limits assumed): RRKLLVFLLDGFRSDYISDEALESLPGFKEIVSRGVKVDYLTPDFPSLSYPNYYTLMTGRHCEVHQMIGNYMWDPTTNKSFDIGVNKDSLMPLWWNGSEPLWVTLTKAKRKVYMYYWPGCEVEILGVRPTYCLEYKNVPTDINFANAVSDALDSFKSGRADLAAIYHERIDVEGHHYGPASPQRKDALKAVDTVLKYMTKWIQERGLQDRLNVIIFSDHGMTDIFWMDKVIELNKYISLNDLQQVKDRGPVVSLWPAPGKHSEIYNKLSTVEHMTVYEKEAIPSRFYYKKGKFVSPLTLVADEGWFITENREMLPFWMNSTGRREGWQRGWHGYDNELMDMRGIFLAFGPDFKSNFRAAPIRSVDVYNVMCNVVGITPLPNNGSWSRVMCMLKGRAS
Protocol: as §1, §2

ATX [5] = target: T1, ATX; design: conditioned serum-free medium (CCM) from MDA-MB-435 cells as the source of ATX; endogenous in cells; host or cells: MDA-MB-435 cells (about 10x concentrated serum-free conditioned medium); conditions: cited from earlier work
[6] = Ki (μM), FS-3 substrate, for mixed mode Ki=IC50 assumed

SMILES | % Response at 10 μM (FS-3) (ATX [1]; 10 μM compound) | Ki (ATX [2]; Ki) | ATX-stimulated cell migration (A2058 cells) | LPC+ATX-stimulated cell migration (A2058 cells) | LPC-stimulated cell migration (A2058 cells) | mechanism of ATX inhibition (ATX [4]) | Inhibition Mechanism (ATX [4]) | single dose response comparison by aromatic substituent and position (ATX [1]) | inhibition at 10 µM (ATX [1]) | effect on activity of NPP7 (human NPP7) | effect on activity of NPP6 (human NPP6) | IC50 (ATX [1]; FS-3 substrate) | Ki (ATX [2]; [6]) | potency relative to the lead compound (ATX [4]) | mechanism of inhibition (reported) (ATX [5]) | further results
CCn1cc(C(=O)O)c(=O)c2cnc(N3CCN(C(=S)Nc4cc(Cl)cc(Cl)c4)CC3)nc21 [Compound 1] | 0.0 ± 4.0% | 1.6 µM | significantly inhibited | significantly inhibited; also recorded: statistically significant inhibition | the reduction was not statistically significant | mixed-mode | Mixed |  |  |  |  |  |  |  |  | block of ATX-mediated hydrolysis of FS-3 (ATX [1]; 10 μM compound, FS-3 1 μM): completely blocked; IC50 (ATX [1]; ATX-mediated FS-3 hydrolysis): 1.6 ± 0.4 µM; inhibition of ATX-catalyzed hydrolysis of FS-3, initial single concentration screen (ATX [3]): fully inhibited
CCn1cc(C(=O)O)c(=O)c2cnc(N3CCN(C(=S)Nc4cccc(Cl)c4)CC3)nc21 [Compound 14, 2-(4-{[(3-chlorophenyl)amino]carbonothioyl}-1-piperazinyl)-8-ethyl-5-oxo-5,8-dihydropyrido[2,3-d]pyrimidine-6-carboxylic acid] | 9.7 ± 0.9% |  | appeared to decrease | appeared to decrease | appeared to decrease | mixed-mode | Mixed | 9.7 ± 0.9 | ≥ 50% | None of the compounds affected the activity | None of the compounds affected the activity |  |  |  |  | 
CCn1cc(C(=O)O)c(=O)c2cnc(N3CCN(C(=S)Nc4cc(Cl)ccc4Cl)CC3)nc21 [Compound 20, 2-(4-{[(2,5-dichlorophenyl)amino]carbonothioyl}-1-piperazinyl)-8-ethyl-5-oxo-5,8-dihydropyrido[2,3-d]pyrimidine-6-carboxylic acid] |  |  | appeared to decrease | appeared to decrease | appeared to decrease |  |  |  |  | None of the compounds affected the activity | None of the compounds affected the activity |  |  |  |  | 
CCn1cc(C(=O)O)c(=O)c2cnc(N3CCN(C(=S)Nc4cc(C)cc(C)c4)CC3)nc21 [Compound 22, 2-(4-{[(3,5-dimethylphenyl)amino]carbonothioyl}-1-piperazinyl)-8-ethyl-5-oxo-5,8-dihydropyrido[2,3-d]pyrimidine-6-carboxylic acid] | 30.4 ± 1.3% | 1.7 to 13.5 µM |  |  |  | mixed-mode | Mixed |  | ≥ 50% | None of the compounds affected the activity | None of the compounds affected the activity | 9 µM | 9 µM | as potent as or significantly less potent than the lead |  | 
CCn1cc(C(=O)O)c(=O)c2cnc(N3CCN(C(=S)Nc4ccc(Cl)cc4)CC3)nc21 [Compound 28, 2-(4-{[(4-chlorophenyl)amino]carbonothioyl}-1-piperazinyl)-8-ethyl-5-oxo-5,8-dihydropyrido[2,3-d]pyrimidine-6-carboxylic acid] | 42.4 ± 0.9% | 1.7 to 13.5 µM |  |  |  | mixed-mode | Mixed | 42.4 ± 0.9 | ≥ 50% | None of the compounds affected the activity | None of the compounds affected the activity | 10.7 µM | 10.7 µM | as potent as or significantly less potent than the lead |  | 
CCn1cc(C(=O)O)c(=O)c2cnc(N3CCN(C(=S)Nc4ccc(C(F)(F)F)cc4)CC3)nc21 [Compound 31, 2-(4-{[(4-trifluoromethylphenyl)amino]carbonothioyl}-1-piperazinyl)-8-ethyl-5-oxo-5,8-dihydropyrido[2,3-d]pyrimidine-6-carboxylic acid] | 36.2 ± 0.9% |  |  |  |  | uncompetitive | Uncompetitive | 36.2 ± 0.9 | ≥ 50% | None of the compounds affected the activity | None of the compounds affected the activity | 1.5 µM | 1.4 µM | at least as potent as the lead compound; also recorded: approximately equivalent to the lead |  | IC50 (ATX [1]; Substrate FS-3 (1 μM)): 1.5 µM
CCCCCCCCCCCCC/C=C/[C@@H](O)[C@@H](N)COP(=O)(O)O [Compound S1P, sphingosine 1-phosphate] |  |  |  |  |  |  |  |  |  |  |  |  |  |  | mixed-mode | 
CCCCCCCCc1ccc(CCC(N)(CO)COP(=O)(O)O)cc1 (stereo not shown) [FTY720-phosphate] |  |  |  |  |  |  |  |  |  |  |  |  |  |  | competitive | Ki (ATX [5]; read-out: Ki (reported)): 0.2 µM
N[C@@H](Cc1c[nH]cn1)C(=O)O [L-histidine] |  |  |  |  |  |  |  |  |  |  |  |  |  |  | non-competitive | 
